We go through 20 molecules from US20250163057A1, “DCN-1 MODULATING COMPOUNDS AND METHODS OF USE THEREOF” (Cellarity, Inc., priority 2023, published 2025).

Assay [1] relates to Cullin-3 (CUL3) neddylation. The assay is described as follows: AlphaLISA assay for Cullin-3 (CUL3) neddylation in TF 1 cells. Format: cell-based. The conditions noted are these: Homo sapiens, 3 hours treatment. The essentials:
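TF 1 cells in unsupplemented IMDM treated with compound concentrations for 3 h, then lysed. CUL3 neddylation detected by AlphaLISA (biotinylated anti-NEDD8, anti-CUL3 acceptor beads overnight, streptavidin donor beads 1 h); normalized to vehicle (0%) and 1 μM DI-1548 (100%), IC50 from Hill fits.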
(Bead proximity is the source of the signal in Alpha formats.)

Assay [2] concerns the target DCN1 (DCUND1) protein PONY domain (Homo sapiens (Human), UniProt Q96GG9). The assay is described as follows: TR-FRET assay, DCN1 binding with FAM-labeled probe. In a few lines:
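Biotinylated DCN1 PONY domain, labeled with streptavidin-Tb, was competed against a FAM-labeled non-covalent DCN1 inhibitor probe in buffer with TritonX and 200 mM NaCl. Conditions were 5 nM DCN1 with 20 nM FAM-probe, or 0.31 nM DCN1 with 100 nM FAM-plus 800 nM unlabeled probe. The TR-FRET ratio was read at 1, 5 and 24 h (0.1% DMSO).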
(TR-FRET usually uses a lanthanide donor and a delayed reading to cut background.)

The next assay has as its target DCN1 protein (Homo sapiens (Human), UniProt Q96GG9). The assay is described as follows: Intact Protein MS Analysis with the RapidFire-TOF System (covalent adduct formation). It is filed as binding. The conditions noted are these: MS Emax; 400 nM DCN1, 3 hours at room temperature. In a few lines:
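Tag-cleaved human DCN1 (400 nM) expressed in E. coli, in 25 mM Tris-HCl, 200 mM NaCl, 1 mM DTT, was incubated with 11 compound concentrations for 3 h at room temperature and quenched with 0.2% formic acid. Intact-protein Q-TOF MS with deconvolution detected the compound adduct mass.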

Where [3] appears, read: 24 hr after treatment with compound, read-out: TR FRET IC50 24 hr.
Setting [4] is: TR FRET IC50 1 hr (nM), 1 hr after treatment with compound.
[5] abbreviates: read-out: TR FRET IC50 1 hr, 1 hr after treatment with compound.

The structures appear in SMILES notation. Like-named read-outs stand apart in the source and are kept apart here.

Chain of DCN1 protein (Q96GG9 whole entry): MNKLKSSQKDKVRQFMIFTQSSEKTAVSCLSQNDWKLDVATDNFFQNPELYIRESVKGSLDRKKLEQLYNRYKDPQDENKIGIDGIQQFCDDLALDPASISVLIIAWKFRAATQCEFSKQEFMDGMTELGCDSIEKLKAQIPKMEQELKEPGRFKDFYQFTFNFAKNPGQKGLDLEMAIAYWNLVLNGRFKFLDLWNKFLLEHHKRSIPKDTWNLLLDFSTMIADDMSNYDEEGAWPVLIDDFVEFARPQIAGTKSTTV
Chain of DCN1 (DCUND1) protein PONY domain (Q96GG9 60-248): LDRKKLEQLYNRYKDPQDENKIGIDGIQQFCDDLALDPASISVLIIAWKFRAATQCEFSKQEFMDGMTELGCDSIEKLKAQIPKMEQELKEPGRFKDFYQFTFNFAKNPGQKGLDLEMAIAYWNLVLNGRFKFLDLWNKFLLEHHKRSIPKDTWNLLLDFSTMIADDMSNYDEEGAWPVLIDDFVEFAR

Take `CCN1C(=O)[C@@H](NC(=O)c2cccc(C(F)(F)F)c2)[C@@H](c2ccc(F)cc2)c2c(C(=O)N(C)[C@@H](C)C#N)nn(-c3ccccc3)c21` (single isomer, unassigned) [Compound I-300, (4S,5S)—N—((S*)-1-cyanoethyl)-7-ethyl-4-(4-fluorophenyl)-N-methyl-6-oxo-1-phenyl-5-(3-(trifluoromethyl)benzamido)-4,5,6,7-tetrahydro-1H-pyrazolo[3,4-b]pyridine-3-carboxamide]: the IC50 in assay [1] (TF-1, 3 h) is no more than 0.1 µM; in assay [2] (setting [3]), no more than 200 nM; in assay [2] (setting [4]), no more than 200 nM. Besides, the “% Adduct Formation” value on DCN1 protein was “+++ (MS Emax % adduct formation greater than 80.0 and less than or equal to 100.0)”.
For `CCN1C(=O)[C@@H](NC(=O)c2cccc(C(F)(F)F)c2)[C@@H](c2ccc(F)cc2)c2c(C(=O)N(CC#N)CCCN(C)C)nn(-c3ccccc3)c21` (racemic) [Compound I-271], the IC50 in assay [1] (TF-1, 3 h) is no more than 0.1 µM; in assay [2] (setting [3]) it was no more than 200 nM; in assay [2] (setting [5]), no more than 200 nM. In addition, at DCN1 protein, the “% Adduct Formation” value is “+++ (MS Emax % adduct formation greater than 80.0 and less than or equal to 100.0)”.
`CCN1C(=O)[C@@H](NC(=O)c2cccc(C(F)(F)F)c2)[C@@H](c2ccc(F)cc2)c2c([C@@H](CF)NC#N)nn(-c3ccccc3)c21` [Compound I-279]: the IC50 is no more than 0.1 µM in assay [1] (TF-1, 3 h); no more than 200 nM in assay [2] (setting [3]); no more than 200 nM in assay [2] (setting [5]). Moreover, on DCN1 protein, the “% Adduct Formation” value was “+++ (MS Emax % adduct formation greater than 80.0 and less than or equal to 100.0)”.
As for `CCN1C(=O)[C@@H](NC(=O)c2ccn(C(F)(F)F)n2)[C@@H](c2ccc(F)cc2)c2c(C(=O)N3[C@H](C#N)C[C@H]4C[C@H]43)nn(-c3ccccc3)c21` [Compound I-344], the IC50 in assay [1] (TF-1, 3 h) is no more than 0.1 µM; in assay [2] (setting [3]), no more than 200 nM; in assay [2] (setting [4]), 200 to 1000 nM. Also, the “% Adduct Formation” value at DCN1 protein was “++ (MS Emax % adduct formation greater than 30.0 and less than or equal to 80.0)”.
As to `CCN1C(=O)[C@@H](NC(=O)c2ccn(C(F)(F)F)n2)[C@@H](c2ccc(F)cc2)c2c(C(=O)N3CCC[C@H]3C#N)nn(-c3ccccc3)c21` [Compound I-343, N-((4S,5S)-3-((S)-2-cyanopyrrolidine-1-carbonyl)-7-ethyl-4-(4-fluorophenyl)-6-oxo-1-phenyl-4,5,6,7-tetrahydro-1H-pyrazolo[3,4-b]pyridin-5-yl)-1-(trifluoromethyl)-1H-pyrazole-3-carboxamide], the IC50 in assay [1] (TF-1, 3 h) was no more than 0.1 µM; in assay [2] (setting [3]) it was no more than 200 nM; in assay [2] (setting [4]), 1000 to 3000 nM. Moreover, the “% Adduct Formation” value on DCN1 protein was “++ (MS Emax % adduct formation greater than 30.0 and less than or equal to 80.0)”.
For `C=C(CN1CC2(COC2)C1)C(=O)NCc1nn(-c2ccccc2)c2c1[C@H](c1ccc(F)cc1)[C@H](NC(=O)c1cccc(C(F)(F)F)c1)C(=O)N2CC` [Compound I-138], the IC50 was no more than 0.1 µM in assay [1] (TF-1, 3 h); no more than 200 nM in assay [2] (setting [3]); no more than 200 nM in assay [2] (setting [5]). For the same molecule, the “% Adduct Formation” value on DCN1 protein is “+++ (MS Emax % adduct formation greater than 80.0 and less than or equal to 100.0)”.
Consider `N#C[C@@H]1C[C@H]2C[C@H]2N1C(=O)c1nn(C2CCOCC2)c2c1[C@H](C1CC1)[C@H](NC(=O)c1cccc(C(F)(F)F)c1)C(=O)N2` (mixture of isomers) [Compound I-385], for which the IC50 is no more than 0.1 µM in assay [1] (TF-1, 3 h); no more than 200 nM in assay [2] (setting [3]); 1000 to 3000 nM in assay [2] (setting [4]). In addition, the “% Adduct Formation” value on DCN1 protein was “+++ (MS Emax % adduct formation greater than 80.0 and less than or equal to 100.0)”.
`CCN1C(=O)[C@@H](NC(=O)c2cccc(OC(F)(F)F)c2)[C@@H](C2CC2)c2c(C(=O)N3[C@H](C#N)C[C@H]4C[C@H]43)nn(C3CCOCC3)c21` [Compound I-396]: the IC50 in assay [1] is no more than 0.1 µM; in assay [2] (setting [3]), no more than 200 nM; in assay [2] (setting [5]), no more than 200 nM. Further, the “% Adduct Formation” value at DCN1 protein is “+++ (MS Emax % adduct formation greater than 80.0 and less than or equal to 100.0)”.
For the molecule `CCN1C(=O)[C@@H](NC(=O)c2cccc(C(F)(F)F)c2)[C@@H](c2ccc(F)cc2)c2c(C(=O)N(C)[C@@H](C#N)C3COC3)nn(-c3ccccc3)c21` (single isomer, unassigned) [Compound I-291], the IC50 in assay [1] (TF-1, 3 h) is no more than 0.1 µM; in assay [2] (setting [3]), no more than 200 nM; in assay [2] (setting [5]) it was no more than 200 nM. Also, the “% Adduct Formation” value at DCN1 protein is “+++ (MS Emax % adduct formation greater than 80.0 and less than or equal to 100.0)”.
For the molecule `CCN1C(=O)[C@@H](NC(=O)c2cccc(C(F)(F)F)c2)[C@@H](c2ccc(F)cc2)c2c(C(=O)N(C)[C@H](C#N)CCN3CCOCC3)nn(-c3ccccc3)c21` [Compound I-308], the IC50 in assay [1] (TF-1, 3 h) is no more than 0.1 µM; in assay [2] (setting [3]) it was no more than 200 nM; in assay [2] (setting [5]), no more than 200 nM. The “% Adduct Formation” value at DCN1 protein was “+++ (MS Emax % adduct formation greater than 80.0 and less than or equal to 100.0)”.
Take `CCN1C(=O)[C@@H](NC(=O)c2cccc(C(F)(F)F)c2)[C@@H](c2ccc(F)cc2)c2c(C(=O)N3CCOC[C@H]3C#N)nn(-c3ccccc3)c21` [Compound I-276]: the IC50 in assay [1] (TF-1, 3 h) is no more than 0.1 µM; in assay [2] (setting [3]), no more than 200 nM; in assay [2] (setting [4]) it was 200 to 1000 nM. Moreover, the “% Adduct Formation” value at DCN1 protein was “+++ (MS Emax % adduct formation greater than 80.0 and less than or equal to 100.0)”.
For the molecule `CCN1C(=O)[C@@H](NC(=O)c2cccc(C(F)(F)F)c2)[C@@H](C2CC2)c2c(C(=O)N(C)C(C)C#N)nn(C3CCOCC3)c21` (mixture of isomers) [Compound I-349], the IC50 in assay [1] (TF-1, 3 h) is no more than 0.1 µM; in assay [2] (setting [3]), no more than 200 nM; in assay [2] (setting [5]), no more than 200 nM. Further, at DCN1 protein, the “% Adduct Formation” value is “+++ (MS Emax % adduct formation greater than 80.0 and less than or equal to 100.0)”.
Consider `C=C(CN1CCN(C2COC2)CC1)C(=O)NCc1nn(-c2ccccc2)c2c1[C@H](c1ccc(F)cc1)[C@H](NC(=O)c1cccc(C(F)(F)F)c1)C(=O)N2CC` (racemic) [Compound I-57], for which the IC50 in assay [1] (TF-1, 3 h) is no more than 0.1 µM; in assay [2] (setting [3]), no more than 200 nM; in assay [2] (setting [5]) it was no more than 200 nM. Further, the “% Adduct Formation” value at DCN1 protein was “++ (MS Emax % adduct formation greater than 30.0 and less than or equal to 80.0)”.
Regarding `CCN1C(=O)[C@@H](NC(=O)c2cccc(C(F)(F)F)c2)[C@@H](c2ccc(F)cc2)c2c(C(=O)N(CC#N)CC#N)nn(-c3ccccc3)c21` [Compound I-302], the IC50 is no more than 0.1 µM in assay [1] (TF-1, 3 h); no more than 200 nM in assay [2] (setting [3]); no more than 200 nM in assay [2] (setting [5]). In addition, on DCN1 protein, the “% Adduct Formation” value was “+++ (MS Emax % adduct formation greater than 80.0 and less than or equal to 100.0)”.
On to `CCN1C(=O)[C@@H](NC(=O)c2cccc(C(F)(F)F)c2)[C@@H](c2ccc(F)cc2)c2c(C(=O)N3[C@H](C#N)C[C@H]4C[C@H]43)nn(C3CCOCC3)c21` [Compound I-329], for which the IC50 in assay [1] (TF-1, 3 h) was no more than 0.1 µM; in assay [2] (setting [3]), no more than 200 nM; in assay [2] (setting [5]) it was no more than 200 nM. Also, the “% Adduct Formation” value at DCN1 protein was “+++ (MS Emax % adduct formation greater than 80.0 and less than or equal to 100.0)”.
With `CCN1C(=O)[C@@H](NC(=O)c2cccc(C(F)(F)F)c2)[C@@H](c2ccc(F)cc2)c2c(C(=O)N(C)[C@H](C#N)CCN3CCN(C4COC4)CC3)nn(-c3ccccc3)c21` [Compound I-316], the IC50 in assay [1] (TF-1, 3 h) was no more than 0.1 µM; in assay [2] (setting [3]), no more than 200 nM; in assay [2] (setting [5]), no more than 200 nM. Also, the “% Adduct Formation” value on DCN1 protein was “+++ (MS Emax % adduct formation greater than 80.0 and less than or equal to 100.0)”.
As to `CCN1C(=O)[C@@H](NC(=O)c2cccc(C(F)(F)F)c2)[C@@H](c2ccc(F)cc2)c2c(C(=O)N3CCC[C@H]3C#N)nn(-c3cccc(OCCN4CCC5(CC4)COC5)c3)c21` [Compound I-341], the IC50 is no more than 0.1 µM in assay [1] (TF-1, 3 h); no more than 200 nM in assay [2] (setting [3]); no more than 200 nM in assay [2] (setting [5]). In addition, on DCN1 protein, the “% Adduct Formation” value is “+++ (MS Emax % adduct formation greater than 80.0 and less than or equal to 100.0)”.
With `CCN1C(=O)[C@@H](NC(=O)c2cccc(C(F)(F)F)c2)[C@@H](c2ccc(F)cc2)c2c(C(=O)N(CC#N)CCCN(C)C)nn(C3CCOCC3)c21` [Compound I-353], the IC50 was no more than 0.1 µM in assay [1] (TF-1, 3 h); no more than 200 nM in assay [2] (setting [3]); no more than 200 nM in assay [2] (setting [5]). At DCN1 protein, the “% Adduct Formation” value is “+++ (MS Emax % adduct formation greater than 80.0 and less than or equal to 100.0)”.
As to `CCN1C(=O)[C@@H](NC(=O)c2ccn(C(F)(F)F)n2)[C@@H](c2ccc(F)cc2)c2c(C(=O)N3CCOC[C@H]3C#N)nn(-c3ccccc3)c21` [Compound I-345], the IC50 in assay [1] (TF-1, 3 h) was no more than 0.1 µM; in assay [2] (setting [3]), no more than 200 nM; in assay [2] (setting [4]), 200 to 1000 nM. In addition, the “% Adduct Formation” value at DCN1 protein was “+++ (MS Emax % adduct formation greater than 80.0 and less than or equal to 100.0)”.
Take `CCN1C(=O)[C@@H](NC(=O)c2cccc(C(F)(F)F)c2)[C@@H](c2ccc(F)cc2)c2c(C(=O)N3CCC[C@H]3C#N)nn(-c3cccc(OCCCN(C)C4COC4)c3)c21` [Compound I-335]: the IC50 in assay [1] (TF-1, 3 h) is no more than 0.1 µM; in assay [2] (setting [3]) it was no more than 200 nM; in assay [2] (setting [4]), 1000 to 3000 nM. Also, on DCN1 protein, the “% Adduct Formation” value was “+++ (MS Emax % adduct formation greater than 80.0 and less than or equal to 100.0)”.

What is called IC50 is the concentration at which inhibition is half-maximal.
